Measured values: patent US11865129B2, “Application of anemoside B4 in preparation of a drug for treatment or prevention of psoriasis” (GUANGXI XINHAI PHARMACEUTICAL TECHNOLOGY CO., LTD., priority 2021, dated 2024)

Tested on: white blood cell (WBC), Neutrophilicgranulocyte (Neu) and Lymphocyte (Lym)
Assay: Blood analysis (blood routine tester), psoriasis model mice
Assay type: in vivo, BALB/c male mice
Conditions: 12 days, compared with model control group
Procedure: A shaving area on the back of the mice in each group is 2.5 cm×3 cm, and the vellus is removed with mild depilatory cream. The mice of each group except the blank control group are modeled by administrating 62.5 mg 5% imiquimod cream on the shaving area until the skin is thickened and has erythema and silver scales for modeling completely. During the model establishment, 5% imiquimod cream is administrated once a day, and continuously administrated for 14 days. On the third day, the model establishment is continued and drugs are administered at the same time, wherein the mice in the AC intragastric administration group (8 mg/kg), the anemoside B4 intragastric (i.g.) administration group (5 mg/kg), the anemoside B4 intragastric administration group (10 mg/kg), and the anemoside B4 intragastric administration group (20 mg/kg) are administrated once a day, and continuously administrated for 12 days. […] The mice in the blank control group and the model control group are applied 62.5 mg Vaseline to the skin lesions once a day, and continuously applied for 12 days. The weight of the mice is recorded for counting the weight change of the mice. Eyeball blood of the mice in each group of the first animal group is drawn on the last day, and measured the level of white blood cell (WBC), […] (Neu) and Lymphocyte (Lym) in blood with the blood routine tester.

[1] = intragastric 5 mg/kg once a day
[2] = intragastric 10 mg/kg once a day
[3] = intragastric 20 mg/kg once a day

C=C(C)[C@@H]1CC[C@]2(C(=O)O[C@@H]3O[C@H](CO[C@@H]4O[C@H](CO)[C@@H](O[C@@H]5O[C@@H](C)[C@H](O)[C@@H](O)[C@H]5O)[C@H](O)[C@H]4O)[C@@H](O)[C@H](O)[C@H]3O)CC[C@]3(C)[C@H](CC[C@@H]4[C@@]5(C)CC[C@H](O[C@@H]6OC[C@H](O)[C@H](O)[C@H]6O[C@@H]6O[C@@H](C)[C@H](O)[C@@H](O)[C@H]6O)[C@@](C)(CO)[C@@H]5CC[C@]43C)[C@H]12 [anemoside B4]
significantly decreased: Lym in blood [1] | Neu in blood [1] | WBC in blood [1] | Lym in blood [2] | Neu in blood [2] | WBC in blood [2] | Lym in blood [3] | Neu in blood [3] | WBC in blood [3]
